Measurements taken from patent US20030083374A1, “NAALADase inhibitors useful as pharmaceutical compounds and compositions” (priority 1998, published 2003).

Assays:
BB/W diabetic rats [1] = experiment: progression of neuropathic pain in BB/W diabetic rats, thermal nociception; type: in vivo, Male BB/W rats; settings: 10 mg/kg i.p. daily; starting after 4 weeks, through six months
From the text: (§1) Male BB/W rats (BR1, Mass) spontaneously develop a cell mediated autoimmune destruction of pancreatic B cells, resulting in onset of insulin-dependent (Type I) diabetes (Guberski 1994). […] This renders them valuable for experimental trials of new compounds for future treatments of this major disorder. In the present study, Compound 1 and Compound 2 were examined for their ability to alter the progression of diabetic neuropathy. The rats received daily injection of Compound 1 or Compound 2 (10 mg/kg i.p.) or vehicle, starting at the onset of diabetes (hyperglycemia) and up to 6 months thereafter. Another group of non-diabetic rats also receiving vehicle were tested. All animals were continuously monitored for body weight, urine volume, blood sugar and glycated haemoglobin. In the first month of the study, all animals were tested for thermal nociception in a Hargreaves apparatus, weekly. After the first month this was done biweekly and then monthly. The testing consists of directing an infrared heat source onto the […] surface of the rat hindpaw and noting the time taken for the animal to remove its paw (for detailed method see Hargreaves et al. 1998). Each animal was tested 8 times and the mean withdrawal latency noted.

BB/W diabetic rats [2] = experiment: nerve conduction velocity in BB/W diabetic rats; type: in vivo, Male BB/W rats; settings: 10 mg/kg daily; starting at 8 weeks, through six months
From the text: as §1, with “Each animal was tested 8 times and the mean withdrawal latency noted.” left out
Nerve conduction velocity was also measured every two weeks through the first eight weeks of treatment and every month thereafter through to the six months of treatment (see De Koning et al. 1987 for method details). […]

[3] = test system: streptozotocin (STZ)-induced peripheral diabetic neuropathy; experiment: in vivo STZ-induced peripheral diabetic neuropathy model, plantar test; design: species or system Male Sprague-Dawley rats; settings: 50 mg/kg i.p. once per day, following 5 days of dosing
Method: NAALADase inhibition in an in vivo streptozotocin (STZ)-induced peripheral diabetic neuropathy model was studied. Male Sprague-Dawley rats weighing 200-250 g were rendered diabetic by intravenous injection of 60 mg/kg STZ into the tail vein. Plasma glucose levels were determined 3 weeks after STZ administration. Only STZ-animals with plasma glucose levels>300 mg/dL (17 mM) were used in the study. Thermal pain threshold and withdrawal latency were used to assess the status of the small dorsal root ganglion (DRG) sensory neurons. Pain was monitored using the plantar test (Hargreaves' Method) using a Basile Plantar apparatus built by Ugo Basil, Vaarese, Italy.
At two months following the STZ administration, the diabetic animals were hyperalgesic as compared to non-diabetic controls as determined by their difference in withdrawal latency. At this time, the rats were administered either the NAALADase inhibitor Compound 2 (50 mg/kg) or vehicle intraperitoneally once per day for 20 days. Thermal pain responses were measured at days 3, 5, 12 and 19 post-dosing. […] This difference was maintained throughout the observation period.

[4] = test system: STZ-induced diabetic rats; experiment: in vivo assay on neuropathic pain in STZ-diabetic rats (Hargreaves); design: species or system Male Sprague-Dawley rats; settings: 10 mg/kg i.p. daily, started 45 days post-STZ
Method: (§2) Male Sprague-Dawley rats (200-225 g) were rendered diabetic by intravenous administration of streptozotocin (STZ, 70 mg/kg in phosphate buffered saline). Diabetic animals were divided into five groups: one group receiving Compound 2 (10 mg/kg or 1 mg/kg), Compound 1 (10 mg/kg or 1 mg/kg) or vehicle. Another group of animals (non-STZ treated) served as non-diabetic controls. Drug/vehicle treatment was started in diabetic animals 45 days post-STZ administration. STZ-induced diabetic rats were tested for sensitivity to a heat source as soon as blood glucose levels rose to 320 mg/dl or above (30 days post STZ). The rats were then acclimated to the Hargreaves apparatus and thermal nociception was monitored using an infrared heat source directed into the […] surface of the hindpaw, and the time taken for the animal to remove its paw noted to the nearest 0.1 seconds (see Hargreaves et al. 1998 for detailed method). The intensity of the beam source was adjusted such that the mean latency for control animals (non-STZ treated) was approximately 10 seconds. Each animal was tested 8 times and the mean difference score (between mean non-diabetic control latency and mean diabetic latency) are graphically presented in FIGS. 19A and 19B.

PCP-treated rats = experiment: in vivo assay on schizophrenia (PCP model); settings: 50 mg/kg i.p. before PCP (5 mg/kg)
Method: Rats treated with PCP develop symptoms, such as frantic running and incessant head-turning, that parallel psychotic symptoms in humans. Thus, to examine the effects of NAALADase inhibition on schizophrenia, rats were treated intraperitoneally with Compound 1 (50 mg/kg), Compound 2 (50 mg/kg) or a vehicle (H2O) before they received PCP (5 mg/kg). Head rolling scores were measured for over 2 hours following PCP injection.

STZ-diabetic animals = experiment: motor and sensory nerve conduction velocity in STZ-diabetic animals; type: in vivo, rats; settings: 10 mg/kg daily
Method: as §2
Motor and sensory nerve conduction velocity was also measured in STZ-diabetic animals after 4, 8 and 12 weeks of treatment (see De Koning and Gispen 1987 for detailed method). Briefly, stimulating needle electrodes were inserted close to the sciatic and tibial nerves with recording electrodes being placed subcutaneously over the distal foot muscles, in anesthetized rats.

[5] = test system: Dorsal root ganglia-Schwann cell co-cultures; experiment: in vitro myelination in dorsal root ganglia-Schwann cell co-cultures; type: cell-based
From the text: The inventors hypothesized that NAALADase may play a role in signaling myelin formation and inhibition of NAALADase may facilitate myelination. To test this hypothesis, the inventors examined the effects of several NAALADase inhibitors in a well established in vitro model system of myelination. Dorsal root ganglia-Schwann cell co-cultures were established as previously described (Einheber et al., J. Cell. Biol., Vol. 123, p. 1223). Following 7 days in co-culture, myelination was initiated following the addition of serum and ascorbic acid with various doses of NAALADase inhibitors (1 nM to 10 μM) or progesterone (20 nM; positive control). The extent of myelination was examined between days 14-21 using immunocytochemical staining for myelin basic protein (MBP), a known myelin marker.

[6] = test system: acetic acid (0.6%) induced writhing; experiment: acetic acid model of pain (writhing); type: in vivo, mice; settings: pretreated
From the text: One source of neuronal glutamate is thought to derive from the abundant neuropeptide NAAG which is hydrolyzed by NAALADase to liberate free glutamate. The inventors hypothesized that inhibition of NAALADase could limit pain by preventing this source of glutamate. To test this hypothesis, the inventors examined the possible antinocipetive effects of several NAALADase inhibitors in the formalin-, acetic acid- and chronic constrictive injury (CCI; “Bennett model”) models of pain. […] On day 7, 5% formalin was injected into the dorsum of the rat's hindpaw.

Q: Which results are given for `O=C(O)CCC(CP(=O)(O)Cc1c(F)c(F)c(F)c(F)c1F)C(=O)O` (stereo not shown) [Compound 2, 2-[[(2,3,4,5,6-pentafluorobenzyl)hydroxyphosphinyl]methyl]-pentanedioic acid]?
A: withdrawal latencies vs. diabetic vehicle-treated rats (BB/W diabetic rats [1]): longer withdrawal latencies; nerve conduction deficits vs. diabetic controls receiving vehicle (BB/W diabetic rats [2]): significantly less severe nerve conduction deficits; withdrawal latency vs. vehicle animals [3]: significant increase; hyperalgesic response in diabetic rats [4]: completely reversed; locomotor-activating effects of PCP (head rolling scores) (PCP-treated rats): significantly reduced; sensory nerve conduction velocity (STZ-diabetic animals; after 8 weeks): significant improvement; motor nerve conduction velocity (STZ-diabetic animals; after 12 weeks): significant improvement; immunostaining of MBP ([5]; 1 nM, two week treatment): significant increase; extent of myelination vs. maximal doses of ascorbic acid and progesterone ([5]; high dose, 1 μM): greater extent of myelination; acetic acid (0.6%) induced writhing vs. vehicle control [6]: significantly attenuated
